Laboratory results as given in patent US20060276394A1, “METHODS AND COMPOSITIONS FOR TREATING NEUROLOGICAL DISORDERS” (WYETH, priority 2002, published 2006).
Entries after “also recorded” stand apart in the source; their conditions may differ.

Assays:
Balb/C mice = test: mouse elevated zero maze (EZM); assay type: in vivo
Experimental: (§1) To assess the anxiolytic activity of NBI-31772, mice receiving intraventricular administration of NBI-31772 were tested in an elevated zero maze (EZM) or in a four-plate appratus (FPT). NBI-31722 (availabe from Calbiochem/EMD Biosciences, Inc. of San Diego, Calif.) was administered in a volume of 2 μl. Balb/C mice were used for the elevated zero maze and Swiss-Webster mice were used for the four-plate test. One-way analysis of variance (ANOVA) was performed on behavioral data to determine effects of test compound treatments, followed by Least Significant Difference Tests for a post hoc analysis. Data is presented as the mean±SEM.
These effects are similar to those seen with reference anxiolytic compounds chlordiazepoxide and diazepam (Ring et al., Psychopharmacology (Berl.), 2006, 185(2):218-225) and are indicative of anxiolytic-like activity of NBI-31772 in the EZM.

Swiss-Webster mice [1] = test: mouse four-plate test (FPT), punished crossings; assay type: in vivo
Experimental: as §1
The four-plate apparatus consists of a Plexiglas chamber (18×25×16 cm) with a floor consisting of four rectangular metal plates (8×11 cm), which are separated from one another by a 4 mm gap. All four plates are wired to a shock generator (0.8 mA, 0.5 second; Med Associates Inc. of St. Albans, Vt.). In each experiment, mice are placed into the chamber and given an 18-second habituation period followed by a 1-minute test. During the test, the animal's innate motivation to explore the novel environment is suppressed by the delivery of a mild foot shock every time the animal moves from one plate to another (referred to as a ‘punished crossing’). Following each punished crossing, there is a 3-second time out where the mouse may cross the plates without receiving another shock. An experimenter blind to the dosing conditions administers shocks, and a computer records the total number of punished crossings an animal makes during the testing period. Clinically effective classes of anxiolytic compounds such as benzodiazepines, selective serotonin reuptake inhibitors, or 5-HT1A […] produce increases in punished crossings, which is indicative of anxiolytic-like activity.
In each study, mice were given a single icv injection or two icv injections of test compounds or vehicle 20 minutes prior to the test session, and the number of punished crosses during the 1-minute test was recorded. For experiments where 2 icv injections were given, an animal received an injection in both the left and right ventricles, with the second injection given immediately after the first injection. A 26-gauge Hamilton syringe with 3-mm needle was used for injections and the injection site was visualized by locating the middle of the invisible line that runs diagonally from the left eye to the right ear. Mice were housed individually during the interval between injections and behavioral testing.
The mouse four-plate test was performed and statistical analyses conducted as described in Example 9.
In these studies, NBI-31772 and JB1, an IGF-1R antagonist, were administered centrally (icv) with the two injections occurring sequentially. Compounds were administered 20 minutes prior to testing and the number of punished crosses during the 1-minute test was recorded.

Swiss-Webster mice [2] = test: mouse tail suspension test (TST); assay type: in vivo; conditions: for immobility: 20 minutes prior to testing
Experimental: To assess the on potential antidepressant effects of NBI-31772, Swiss-Webster mice were analyzed using the Tail Suspension Test (TST). In this test, mice were suspended upside down by taping their tails with adhesive laboratory tape (VWR International of West Chester, Pa.) to a flat metal bar connected to a strain gauge within a sound-attenuating chamber (Med Associates Inc. of St. Albans, Vt.). The bar is positioned such that a mouse is not able to grasp the top or the sides of the chamber. The total time spent immobile during a 6-minute test session is automatically recorded. Compounds that decrease the total immobility time compared to control animals are predicted to have antidepressant-like effects. In each study, mice were given a single icv injection of test compound or vehicle 20 minute prior to the test session. Mice were housed individually during the interval between injection and behavioral testing.
One-way analysis of variance (ANOVA) was performed on behavioral data to determine effects of NBI-31772 treatment, followed by Least Significant Difference Tests for a post hoc analysis. The data is presented as the mean±SEM. […] This decrease in immobility indicates antidepressant-like effects similar to that seen with IGF-1.
The mouse tail suspension test was performed and statistical analyses conducted as described in Example 11.

IGFBP-1 to IGFBP-6 = conditions: cited from earlier work
IGFBP-2 = target: T1, IGFBP-2 (Homo sapiens, UniProt P18065); conditions: cited from earlier work
T1 sequence (P18065 with tags, fused parts or gaps DUP19-21/R317C): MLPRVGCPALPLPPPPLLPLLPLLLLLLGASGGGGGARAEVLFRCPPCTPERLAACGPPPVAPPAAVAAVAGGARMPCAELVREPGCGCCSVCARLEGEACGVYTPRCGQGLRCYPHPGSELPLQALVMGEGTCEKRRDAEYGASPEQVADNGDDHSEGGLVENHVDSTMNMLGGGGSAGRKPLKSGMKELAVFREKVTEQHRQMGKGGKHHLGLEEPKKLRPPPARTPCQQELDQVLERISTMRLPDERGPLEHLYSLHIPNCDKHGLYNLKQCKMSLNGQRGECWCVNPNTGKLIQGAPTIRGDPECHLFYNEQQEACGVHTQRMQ

fibroblast = conditions: IGF-I released from binding protein complex; cited from earlier work
IGFBP-2 mRNA = test: transcriptional profiling of amygdala of drug-treated rats; assay type: in vivo; conditions: rat amygdala
Excerpt: In the short-term 3 day treatment, it is possible that the drugs might exert their antidepressant effects through decreasing IGFBP-2 expression, which would increase bioavailability of IGF-I. The long-term treatment is of equivalent magnitude but in the opposite direction. This may represent a compensatory mechanism in response to the short-term drug effects.

IGF-I mRNA = test: microarray profiling of antidepressant-treated C6 glioma cell lines; assay type: cell-based; conditions: quiescent C6 glioma cell lines, 24 hours
Excerpt: Glial cell cultures were used because they lack endogenous serotonin and norepinephrine transporter mechanisms. Thus, any transcriptional effects caused by the antidepressant drugs are due to actions beyond the level of the serotonin and norepinephrine receptors and respective transporters. […] Antidepressant drugs may therefore be acting on the glia, which produces the neurotrophic factor IGF-I, which acts in a juxtacrine manner to stimulate neurogenesis.

[3] = cited from earlier work
adult rat dentate gyrus = test: BrdU-positive cell proliferation in adult rat dentate gyrus after chronic icv infusion; assay type: in vivo; conditions: 10 days icv via minipump, sacrifice Day 11
Experimental: Previous investigators have shown that IGF-1 administered either intracerebroventricular (icv) or systemically increases proliferation and survival, and (Aberg, et al, 2000; Lichtenwalner et al, 2000). Furthermore, systemic IGF promotes neuronal differentiation. The present study confirms and extends these previous findings. Rats were given IGF-1 for 10 days via a cannula attached to a semiosmotic minipump. On Day 11, animals were sacrificed and quantitative analysis was performed to determine the number of BrdU-positive cells as a measure of cell proliferation. A 66% increase in BrdU-positive cells per hippocampus compared to saline-infused animals was observed (FIG. 10).

[4] = rats, subcutaneous deposition; cited from earlier work

O=C(O)c1cc2cc(O)c(O)cc2c(C(=O)c2ccc(O)c(O)c2)n1 [NBI-31772]
increase in % time in the open arms compared to the vehicle group (Balb/C mice; 0.3 μg icv): 100%
increase in % time in the open arms compared to the vehicle group (Balb/C mice; 1 μg icv): 100%
increase in % time in the open arms compared to the vehicle group (Balb/C mice; 3 μg icv): 81%
increase in % time in the open arms compared to the vehicle group (Balb/C mice; 10 μg icv): 119%
% time spent in the open arms of the maze (Balb/C mice; 0.1-10 μg, icv, 20 minutes prior to testing): dose-dependent increase
increase in punished crossings (Swiss-Webster mice [1]; 10 μg icv): 22%
increase in punished crossings (Swiss-Webster mice [1]; 30 μg icv): 32%
increase in punished crossings compared to vehicle group (Swiss-Webster mice [1]; 30 μg icv, two sequential icv injections study): 24%
seizures, percentage of animals (Swiss-Webster mice [1]; 56 μg icv): 20%
seizures, percentage of animals (Swiss-Webster mice [1]; 100 μg icv): 40%
punished crossings (Swiss-Webster mice [1]; 3.0-30 μg, icv): dose-dependent increase
punished crossings (Swiss-Webster mice [1]; higher doses 56 and 100 μg icv, not used for analysis): an increase in punished crossings was seen
decrease in immobility (Swiss-Webster mice [2]; 3 μg icv): 32%
decrease in immobility (Swiss-Webster mice [2]; 10 μg icv): 35%
decrease in immobility (Swiss-Webster mice [2]; 30 μg icv): 38%
immobility (Swiss-Webster mice [2]; 0.3-30 μg icv): dose-dependent decrease
dissociation of IGF-I from its binding protein complex (IGFBP-1 to IGFBP-6): dissociates
inhibition of 125I IGF-I binding / interaction of IGF-I with IGFBP-1 to 6 (IGFBP-1 to IGFBP-6): inhibits; also recorded: dose-dependent inhibition
activity toward IGFBP-2 compared to the other five IGFBPs (IGFBP-2): highest activity
biological activity of the released IGF-I (fibroblast): biologically active

C[C@]12CC[C@H]3[C@@H](CC[C@@H]4C[C@@](O)(C(F)(F)F)CC[C@@H]43)[C@@H]1CC[C@@H]2C(=O)CO [GMA-839]
expression of IGFBP-2 mRNA compared to vehicle alone (IGFBP-2 mRNA; 3 day treatment): decreased expression
expression of IGFBP-2 mRNA compared to vehicle alone (IGFBP-2 mRNA; 14 day treatment): increased expression

O=C1CC2(CCCC2)CC(=O)N1CCCCN1CCN(c2ncccn2)CC1 [Buspirone]
expression of IGFBP-2 mRNA compared to vehicle alone (IGFBP-2 mRNA; 3 day treatment): decreased expression
expression of IGFBP-2 mRNA compared to vehicle alone (IGFBP-2 mRNA; 14 day treatment): increased expression

CNCCCN1c2ccccc2CCc2ccccc21 [desipramine]
expression of IGF-I mRNA (IGF-I mRNA): increased expression

CNCCC(Oc1ccc(C(F)(F)F)cc1)c1ccccc1 (stereo not shown) [fluoxetine]
expression of IGF-I mRNA (IGF-I mRNA): increased expression

complex of IGF-I and IGFBP-3: dimeric complex of IGF-I and IGFBP-3 in serum
serum half-life [3]: 30 min

Fc1ccc([C@@H]2CCNC[C@H]2COc2ccc3c(c2)OCO3)cc1 [Paroxetine]
expression of IGFBP-2 mRNA compared to vehicle alone (IGFBP-2 mRNA; 3 day treatment): decreased expression
expression of IGFBP-2 mRNA compared to vehicle alone (IGFBP-2 mRNA; 14 day treatment): increased expression

COc1ccc(C(CN(C)C)C2(O)CCCCC2)cc1 (stereo not shown) [venlafaxine]
expression of IGF-I mRNA (IGF-I mRNA): increased expression

IGF-1: recombinant human IGF-1, insulin-like growth factor, available from Bachem Biosciences
increase in punished crossings from vehicle (Swiss-Webster mice [1]; 0.01 μg dose, central administration): 32%
effects in the four-plate test (FIG. 13) (Swiss-Webster mice [1]; 0.1 μg): anxiolytic-like effects
punished crossings (Swiss-Webster mice [1]; 0.03-1.0 μg, central administration 20 minutes prior to testing): significant overall effect
decrease in immobility from vehicle (Swiss-Webster mice [2]; 10 μg dose): 33%
immobility (Swiss-Webster mice [2]; 1-10 μg): dose-dependent decrease
increase in BrdU-positive cells per hippocampus compared to saline-infused animals (adult rat dentate gyrus): 66%
inhibition of 125I IGF-I binding / interaction of IGF-I with IGFBP-1 to 6 (IGFBP-1 to IGFBP-6): dose-dependent inhibition
serum half-life [3]: 10 min
concentrations in the CNS relative to those in the serum [4]: about 0.5%
plasma concentrations at which uptake into CSF reached a plateau [4]: above 150 ng/ml
